Data: US6492330B1, “Antiangiogenic drugs” (National Institute of Immunology, priority 1996, dated 2002)
Positions of bridges follow the written chain, without caps; N, C: chain ends. Non-standard residues stand in square brackets, D forms with d. No end group written: not given here. Deg = CCC(N)(CC)C(=O)O; Aib = CC(C)(N)C(=O)O

Columns and labels:
Format in all cases: cell-based
ECV.304 cells = assay: MTT assay, inhibition of proliferation of endothelial cells ECV.304; settings: 72 hours (Table 2)
Protocol: 150 μl of medium was added to the wells of a 96-well tissue culture plate (Nunc, Denmark) followed by 30 μl of cell suspension. The plate was left in incubator (37° C., 5% CO2) overnight. Each of the seven peptides of the combination MuJ-7 were added at three molar concentrations of 10^−7M, 10^−8M and 10^−9M. 20 μl of MuJ-7 at three concentrations of N/10, N and 10N was added to marked wells of the 96-well plate. The value of N for each of the individual peptides was 10^−8M for VIP2, BOM1, SP1, VIP3, and SOM2 and 10^−7M for VIP1, and 10^−9M for SOM1. Each concentration was plated in triplicate. 20 μl of medium alone was added to control wells while wells without cells served as blanks. A total volume of 200 μl was ensured in each well and the plate was left in an incubator (37° C., 5% CO2). After 72 hours of incubation an MTT assay was performed and percentage inhibition in proliferation of treated cells was calculated with respect to control cells.
150 μl of medium was added to the wells of a 96-well tissue culture plate (Nunc, Denmark) followed by 30 μl of cell suspension. The plate was left in incubator (37° C., 5% CO2) overnight. Novel peptides shown below were incubated with cells at concentration range of 10^−7 to 10^−9 M (except DT71 at concentration range 10^−8 to 10^−10 M). Each concentration was plated in triplicates. 20 μl of medium alone was added to control wells while wells without cells served as blanks. A total volume of 200 μl was ensured in each well and plate was left in incubator (37° C., 5% CO2). After 72 hours of incubation an MTT assay was performed and percentage inhibition in proliferation of treated cells was calculated with respect to control cells.

[1] = system: endothelial cells ECV.304; assay: Migration assay across 8 μm polycarbonate filter transwell inserts; settings: 24 hours (Table 4)
Protocol: Polycarbonate filter transwell inserts (24 well size) with 8 μm pores (Nunc, Denmark) were used for the migration assay. ECV304 (10^4 cells/200 ul DMEM containing 0.1% BSA) was added to the upper chamber. The lower chamber contained 600 ul of DMEM with 0.1% BSA. Individual peptides of the composition MuJ-7 at six different concentrations each of N/100, N/10, N, 10N, 100N and 1000N were added directly to the upper well and the plate incubated at 37° C. for 24 hours. The cells migrated to the lower chamber were viewed randomly at five different phase-contrast microscopic fields and the total number of cells counted using Video Pro 32 Image Analysis system. Percent inhibition in migration was determined with reference to the Control. Similarly, […] different concentrations of N/100, N/10, N, 10N, 100N and 1000N of MuJ-7 were added directly to the upper well and the plate incubated at 37° C. for 24 hours. The cells migrated to the lower chamber were counted as described above.
Polycarbonate filter trasnwell inserts (24 well size) with 8 μm pores (Nuno, Denmark) were used for the migration assay. ECV304 (10^4 cells/200 ul DMEM containing 0.1% BSA) was added to the upper chamber. The lower chamber contained 600 ul of DMEM with 0.1% BSA. […] The sequence of each of the peptides added are described above. The cells migrated to the lower chamber were viewed randomly at five different phase-contrast microscopic fields and the total number of cells counted using Video Pro 32 Image Analysis system. Percent inhibition in migration was determined with reference to Control. […]

ECV304 = assay: Tube-like-structure (TLS) formation on Matrigel; settings: 24 hours
Protocol: Matrigel (350 ul) was placed into each well of a 24-well culture plate at 4° C. and was allowed to polymerize by incubation at 37° C. for 30 min. ECV304 (1.5×10^4) were seeded on the Matrigel in 500 ul DMEM supplemented with 10% FBS. MuJ-7 at four different concentrations of 0.25×, 0.5×, ×, & 5.0× were added and. the plate incubated at 37° C. for 24 hour. “×” denotes normal concentration of MuJ-7 where molar concentration of individual peptides was 10^−8 M for VIP2, BOM1, SP1, VIP3 and SOM2 and 10^−7 M for VIP1 and 10^−9 M for SOM1. […] Percent inhibition in tube area was determined with reference to untreated cells.
Matrigel (350 ul) was placed into each well of a 24-well culture plate at 4° C. and was allowed to polymerize by incubation at 37° C. for 30 min. ECV304 (1.5×10^4) were seeded on the Matrigel in 500 ul DMEM supplemented with 10% FBS. […] Percent inhibition in tube length was determined with reference to untreated cells.
Matrigel (350 ul) was placed into each well of a 24-well culture plate at 4° C. and was allowed to polymerize by incubation at 37° C. for 30 min. ECV304 (1.5×10^4) were seeded on the Matrigel in 500 ul DMEM supplemented with 10% FBS. Individual peptides of the composition MuJ-7 at three different concentrations each of N/10, N, and 10N were added and the plate incubated at 37° C. for 24 hours. […] Percent inhibition in tube length was determined with reference to Control. Similarly, three different concentrations of N/10, N, and 10N of MuJ-7 were added to the well and the plate incubated at 37° C. for 24 hours. Percent inhibition in tube length was determined with reference to Control as described previously (Table 10).

[2] = analog at optimum concentration −8M

| Substance | PERCENT INHIBITION OF PROLIFERATION (ECV.304 cells; ECV304, 10^−7M) | PERCENT INHIBITION OF PROLIFERATION (ECV.304 cells; ECV304, 10^−8M) | PERCENT INHIBITION OF PROLIFERATION (ECV.304 cells; ECV304, 10^−9M) | PERCENT INHIBITION MIGRATION [1, 2] | INHIBITION OF TUBE LENGTH (ECV304; peptide −8M) | PERCENT INHIBITION OF PROLIFERATION (ECV.304 cells; ECV304, 10^−10M) | PERCENT INHIBITION MIGRATION ([1]; analog at optimum concentration −9M) | INHIBITION OF TUBE LENGTH (ECV304; peptide −9M) |
| --- | --- | --- | --- | --- | --- | --- | --- | --- |
| Aib-Met-Gln-Trp-Phe-Aib-NH2 ([Aib]MQWF[Aib]-NH2; N-terminus assumed; SMILES CSCC[C@H](NC(=O)C(C)(C)N)C(=O)N[C@@H](CCC(N)=O)C(=O)N[C@@H](Cc1c[nH]c2ccccc12)C(=O)N[C@@H](Cc1ccccc1)C(=O)NC(C)(C)C(N)=O) [DT-31] | 1.3% | 14.1% | 6.1% | 0% | 17.1% | – | – | – |
| Aib-Met-Tyr-Pro-Thr-Tyr-Aib-Lys-OH ([Aib]MYPTY[Aib]K-OH; N-terminus assumed; SMILES CSCC[C@H](NC(=O)C(C)(C)N)C(=O)N[C@@H](Cc1ccc(O)cc1)C(=O)N1CCC[C@H]1C(=O)N[C@H](C(=O)N[C@@H](Cc1ccc(O)cc1)C(=O)NC(C)(C)C(=O)N[C@@H](CCCCN)C(=O)O)[C@@H](C)O) [DT-11] | 16.7% | 18.7% | 19.9% | 82.5% | 3.6% | – | – | – |
| Aib-Met-Tyr-Pro-Thr-Tyr-Deg-Lys-OH ([Aib]MYPTY[Deg]K-OH; N-terminus assumed; SMILES CCC(CC)(NC(=O)[C@H](Cc1ccc(O)cc1)NC(=O)[C@@H](NC(=O)[C@@H]1CCCN1C(=O)[C@H](Cc1ccc(O)cc1)NC(=O)[C@H](CCSC)NC(=O)C(C)(C)N)[C@@H](C)O)C(=O)N[C@@H](CCCCN)C(=O)O) [DT-18] | 23.3% | 10.9% | 14.4% | 73.2% | 0% | – | – | – |
| Ala-Aib-Cys-Lys-Asn-Phe-Phe-D-Trp-Lys-Thr-Phe-Thr-Ser-Cys (3-14 Disulphide bond) (A[Aib]CKNFF[dW]KTFTSC; disulfide 3-14) [DT-62A] | 11.7% | 20.1% | 25.7% | 62.2% | 44.1% | – | – | – |
| Ala-Aib-Cys-Lys-Asn-Phe-Phe-D-Trp-Lys-Thr-Phe-Thr-Ser-Cys (A[Aib]CKNFF[dW]KTFTSC; ends and bridges not checked) [DT-62B] | 14.0% | 3.8% | 12.8% | 8.5% | 0% | – | – | – |
| D-Leu-Met-Tyr-Pro-Thr-Tyr-Aib-Lys-OH ([dL]MYPTY[Aib]K-OH; N-terminus assumed; SMILES CSCC[C@H](NC(=O)[C@H](N)CC(C)C)C(=O)N[C@@H](Cc1ccc(O)cc1)C(=O)N1CCC[C@H]1C(=O)N[C@H](C(=O)N[C@@H](Cc1ccc(O)cc1)C(=O)NC(C)(C)C(=O)N[C@@H](CCCCN)C(=O)O)[C@@H](C)O) [DT-12] | 20.3% | 16.1% | 15.5% | 58.7% | 17.1% | – | – | – |
| D-Leu-Met-Tyr-Pro-Thr-Tyr-D-Leu-Lys-OH ([dL]MYPTY[dL]K-OH; N-terminus assumed; SMILES CSCC[C@H](NC(=O)[C@H](N)CC(C)C)C(=O)N[C@@H](Cc1ccc(O)cc1)C(=O)N1CCC[C@H]1C(=O)N[C@H](C(=O)N[C@@H](Cc1ccc(O)cc1)C(=O)N[C@H](CC(C)C)C(=O)N[C@@H](CCCCN)C(=O)O)[C@@H](C)O) [DT-16] | 24.0% | 24.7% | 37.9% | 90.07% | 18.9% | – | – | – |
| D-Leu-Met-Tyr-Pro-Thr-Tyr-Deg-Lys-OH ([dL]MYPTY[Deg]K-OH; N-terminus assumed; SMILES CCC(CC)(NC(=O)[C@H](Cc1ccc(O)cc1)NC(=O)[C@@H](NC(=O)[C@@H]1CCCN1C(=O)[C@H](Cc1ccc(O)cc1)NC(=O)[C@H](CCSC)NC(=O)[C@H](N)CC(C)C)[C@@H](C)O)C(=O)N[C@@H](CCCCN)C(=O)O) [DT-19] | 11.9% | 7.3% | 21.0% | 80.4% | 37.8% | – | – | – |
| D-Phe-Cys-Tyr-D-Trp-Lys-Thr-Aib-Thr-NH2 (XCYXKTXT; D-amino acids, Aib, C-terminal amide) [DT-71] | – | 14.6% | 12.1% | – | – | 9.4% | 68.2% | 9.9% |
| D-Phe-Gln-Trp-Aib-Val-Gly-His-Ile-NH2 ([dF]QW[Aib]VGHI-NH2; N-terminus assumed; SMILES CC[C@H](C)[C@H](NC(=O)[C@H](Cc1c[nH]cn1)NC(=O)CNC(=O)[C@@H](NC(=O)C(C)(C)NC(=O)[C@H](Cc1c[nH]c2ccccc12)NC(=O)[C@H](CCC(N)=O)NC(=O)[C@H](N)Cc1ccccc1)C(C)C)C(N)=O) [DT-26] | 0% | 0% | 0% | 0% | 0% | – | – | – |
| LM[dY]PTY[dL]K-OH [DT-15] | 20.4% | 13.2% | 20.0% | 73.2% | 0% | – | – | – |
